How the values were obtained:
Assay type in all cases: in vivo
[1] = system: Alopecurus myosuroides; experiment: Post-emergence herbicidal effect; conditions: one-leaf stage, 320 g/ha, assessed visually after about 3 weeks, 100% = plants have died
Experimental: (§1) ALOMY: Alopecurus myosuroides Seeds of monocotyledonous and dicotyledonous weed and crop plants are laid out in sandy loam soil in wood-fibre pots, covered with soil and cultivated in a greenhouse under good growth conditions. 2 to 3 weeks after sowing, the test plants are treated at the one-leaf stage. The compounds of the invention, formulated in the form of wettable powders (WP) or as emulsion concentrates (EC), are then sprayed onto the green parts of the plants as aqueous suspension or emulsion at a water application rate equating to 600 to 800 L/ha with addition of 0.2% wetting agent. After the test plants have been left to stand in the greenhouse under optimal growth conditions for about 3 weeks, the action of the preparations is assessed visually in comparison to untreated controls (herbicidal action in percent (%): 100% activity=the plants have died, 0% activity=like control plants).

[2] = system: Lolium multiflorum; experiment: Pre-emergence herbicidal effect; conditions: 320 g/ha, scored visually after 3 weeks vs untreated controls, 100% = plants have died
Source text: (§2) Seeds of monocotyledonous and dicotyledonous weed plants and crop plants are laid out in sandy loam soil in wood-fibre pots and covered with soil. The compounds of the invention, formulated in the form of wettable powders (WP) or as emulsion concentrates (EC), are then applied to the surface of the covering soil as aqueous suspension or emulsion at a water application rate equating to 600 to 800 L/ha with addition of 0.2% wetting agent. After the treatment, the pots are placed in a greenhouse and kept under good growth conditions for the trial plants. The damage to the test plants is scored visually after a test period of 3 weeks by comparison with untreated controls (herbicidal activity in percent (%): 100% activity=the plants have died, 0% activity=like control plants). LOLMU: Lolium multiflorum

[3] = system: Setaria viridis; experiment: Post-emergence herbicidal effect; conditions: one-leaf stage, 320 g/ha, assessed visually after about 3 weeks, 100% = plants have died
Experimental: as §1, with “SETVI: Setaria viridis” for “ALOMY: Alopecurus myosuroides”

[4] = system: Avena fatua; experiment: Post-emergence herbicidal effect; conditions: one-leaf stage, 320 g/ha, assessed visually after about 3 weeks, 100% = plants have died
Experimental: as §1, with “AVEFA: Avena fatua” for “ALOMY: Alopecurus myosuroides”

[5] = system: Echinochloa crus-galli; experiment: Post-emergence herbicidal effect; conditions: one-leaf stage, 320 g/ha, assessed visually after about 3 weeks, 100% = plants have died
Experimental: as §1, with “ECHCG: Echinochloa crus-galli” for “ALOMY: Alopecurus myosuroides”

[6] = system: Lolium multiflorum; experiment: Post-emergence herbicidal effect; conditions: one-leaf stage, 320 g/ha, assessed visually after about 3 weeks, 100% = plants have died
Experimental: as §1, with “LOLMU: Lolium multiflorum” for “ALOMY: Alopecurus myosuroides”

[7] = system: Alopecurus myosuroides; experiment: Pre-emergence herbicidal effect; conditions: 320 g/ha, scored visually after 3 weeks vs untreated controls, 100% = plants have died
Source text: as §2, with “ALOMY: Alopecurus myosuroides” for “LOLMU: Lolium multiflorum”

[8] = system: Avena fatua; experiment: Pre-emergence herbicidal effect; conditions: 320 g/ha, scored visually after 3 weeks vs untreated controls, 100% = plants have died
Source text: as §2, with “AVEFA: Avena fatua” for “LOLMU: Lolium multiflorum”

[9] = system: Setaria viridis; experiment: Pre-emergence herbicidal effect; conditions: 320 g/ha, scored visually after 3 weeks vs untreated controls, 100% = plants have died
Source text: as §2, with “SETVI: Setaria viridis” for “LOLMU: Lolium multiflorum”

[10] = system: Echinochloa crus-galli; experiment: Pre-emergence herbicidal effect; conditions: 320 g/ha, scored visually after 3 weeks vs untreated controls, 100% = plants have died
Source text: as §2, with “ECHCG: Echinochloa crus-galli” for “LOLMU: Lolium multiflorum”

Cc1cc(C)c(C2=C(O)C3COCCCN3C2=O)c(C)c1 (racemic) [Ia-2-1]
Post-emergence effectiveness ALOMY (herbicidal action in percent) [1]: 100%
Pre-emergence action LOLMU (herbicidal activity in percent) [2]: 100%
Post-emergence effectiveness SETVI (herbicidal action in percent) [3]: 100%
Post-emergence effectiveness AVEFA (herbicidal action in percent) [4]: 100%
Post-emergence effectiveness ECHCG (herbicidal action in percent) [5]: 100%
Post-emergence effectiveness LOLMU (herbicidal action in percent) [6]: 100%
Pre-emergence action ALOMY (herbicidal activity in percent) [7]: 80%

CCc1cc(C)cc(CC)c1C1=C(O)C2COCCCN2C1=O (racemic) [Ia-2-2]
Post-emergence effectiveness ALOMY (herbicidal action in percent) [1]: 100%
Pre-emergence action LOLMU (herbicidal activity in percent) [2]: 100%
Post-emergence effectiveness SETVI (herbicidal action in percent) [3]: 100%
Post-emergence effectiveness AVEFA (herbicidal action in percent) [4]: 100%
Post-emergence effectiveness ECHCG (herbicidal action in percent) [5]: 100%
Pre-emergence action AVEFA (herbicidal activity in percent) [8]: 90%
Pre-emergence action SETVI (herbicidal activity in percent) [9]: 100%
Post-emergence effectiveness LOLMU (herbicidal action in percent) [6]: 100%
Pre-emergence action ALOMY (herbicidal activity in percent) [7]: 80%
Pre-emergence action ECHCG (herbicidal activity in percent) [10]: 100%

CCc1cc(C)cc(CC)c1C1=C(O)C2CCOCCN2C1=O (stereo not drawn) [Example Ia-1-3, 8-(2,6-Diethyl-4-methylphenyl)-9-hydroxy-1,4,5,9a-tetrahydropyrrolo[1,2-d][1,4]oxazepin-7(2H)-one]
Post-emergence effectiveness ALOMY (herbicidal action in percent) [1]: 100%
Pre-emergence action LOLMU (herbicidal activity in percent) [2]: 100%
Post-emergence effectiveness SETVI (herbicidal action in percent) [3]: 100%
Post-emergence effectiveness AVEFA (herbicidal action in percent) [4]: 100%
Post-emergence effectiveness ECHCG (herbicidal action in percent) [5]: 100%
Pre-emergence action AVEFA (herbicidal activity in percent) [8]: 100%
Pre-emergence action SETVI (herbicidal activity in percent) [9]: 100%
Post-emergence effectiveness LOLMU (herbicidal action in percent) [6]: 100%
Pre-emergence action ALOMY (herbicidal activity in percent) [7]: 100%
Pre-emergence action ECHCG (herbicidal activity in percent) [10]: 100%

CCc1cc(C)cc(CC)c1C1=C(OC(=O)OC)C2CCOCCN2C1=O (stereo not drawn) [Example Ib-1-1, 8-(2,6-Diethyl-4-methylphenyl)-7-oxo-1,2,4,5,7,9a-hexahydropyrrolo[1,2-d][1,4]oxazepin-9-yl methyl carbonate]
Post-emergence effectiveness ALOMY (herbicidal action in percent) [1]: 100%
Pre-emergence action LOLMU (herbicidal activity in percent) [2]: 100%
Post-emergence effectiveness SETVI (herbicidal action in percent) [3]: 100%
Post-emergence effectiveness AVEFA (herbicidal action in percent) [4]: 100%
Post-emergence effectiveness ECHCG (herbicidal action in percent) [5]: 100%
Pre-emergence action AVEFA (herbicidal activity in percent) [8]: 100%
Pre-emergence action SETVI (herbicidal activity in percent) [9]: 100%
Post-emergence effectiveness LOLMU (herbicidal action in percent) [6]: 100%
Pre-emergence action ALOMY (herbicidal activity in percent) [7]: 100%
Pre-emergence action ECHCG (herbicidal activity in percent) [10]: 100%

CCc1cccc(C)c1C1=C(OC(C)=O)C2CCOCCN2C1=O (stereo not drawn) [Ib-1-15]
Post-emergence effectiveness ALOMY (herbicidal action in percent) [1]: 100%
Pre-emergence action LOLMU (herbicidal activity in percent) [2]: 100%
Post-emergence effectiveness SETVI (herbicidal action in percent) [3]: 100%
Post-emergence effectiveness AVEFA (herbicidal action in percent) [4]: 100%
Post-emergence effectiveness ECHCG (herbicidal action in percent) [5]: 100%
Pre-emergence action SETVI (herbicidal activity in percent) [9]: 100%
Post-emergence effectiveness LOLMU (herbicidal action in percent) [6]: 100%
Pre-emergence action ALOMY (herbicidal activity in percent) [7]: 100%
Pre-emergence action ECHCG (herbicidal activity in percent) [10]: 100%

CCOC(=O)OC1=C(c2c(CC)cc(Cl)cc2OC)C(=O)N2CCOCCC12 (stereo not drawn) [Ib-1-17]
Post-emergence effectiveness ALOMY (herbicidal action in percent) [1]: 100%
Post-emergence effectiveness SETVI (herbicidal action in percent) [3]: 100%
Post-emergence effectiveness AVEFA (herbicidal action in percent) [4]: 100%
Post-emergence effectiveness ECHCG (herbicidal action in percent) [5]: 100%
Pre-emergence action AVEFA (herbicidal activity in percent) [8]: 100%
Pre-emergence action SETVI (herbicidal activity in percent) [9]: 100%
Post-emergence effectiveness LOLMU (herbicidal action in percent) [6]: 100%
Pre-emergence action ALOMY (herbicidal activity in percent) [7]: 100%
Pre-emergence action ECHCG (herbicidal activity in percent) [10]: 100%

CCc1cc(C)cc(C)c1C1=C(OC(C)=O)C2=CCOCCN2C1=O [Ib-3-4]
Post-emergence effectiveness ALOMY (herbicidal action in percent) [1]: 90%
Post-emergence effectiveness SETVI (herbicidal action in percent) [3]: 100%
Post-emergence effectiveness AVEFA (herbicidal action in percent) [4]: 80%
Post-emergence effectiveness ECHCG (herbicidal action in percent) [5]: 90%
Post-emergence effectiveness LOLMU (herbicidal action in percent) [6]: 80%

CCc1cc(Cl)cc(OC)c1C1=C(OC(=O)C(C)(C)C)C2=CCOCCN2C1=O [Ib-3-10]
Post-emergence effectiveness ALOMY (herbicidal action in percent) [1]: 100%
Pre-emergence action LOLMU (herbicidal activity in percent) [2]: 100%
Post-emergence effectiveness SETVI (herbicidal action in percent) [3]: 100%
Post-emergence effectiveness AVEFA (herbicidal action in percent) [4]: 100%
Post-emergence effectiveness ECHCG (herbicidal action in percent) [5]: 100%
Pre-emergence action SETVI (herbicidal activity in percent) [9]: 100%
Post-emergence effectiveness LOLMU (herbicidal action in percent) [6]: 100%
Pre-emergence action ALOMY (herbicidal activity in percent) [7]: 90%
Pre-emergence action ECHCG (herbicidal activity in percent) [10]: 100%

Reference: patent US20190119298A1, “FUSED 3-PHENYLTETRAMIC ACID DERIVATIVES HAVING HERBICIDAL ACTION” (Bayer CropScience Aktiengesellschaft, priority 2016, published 2019)
